The text below walks through data of patent US20260092071A1, “COMPOUNDS AND COMPOSITIONS AS SMARCA2/4 DEGRADERS AND USES THEREOF” (REGENTS OF THE UNIVERSITY OF MICHIGAN, priority 2022, published 2026).

Where two headings read alike, the source gives them in different places. Bounds are passed on as bounds.

The target in one assay is SMARCA4 (Homo sapiens, UniProt P51532). Nature of the assay: HiBiT assay for protein degradation, Hela SMARCA4-HiBiT cells (A series). Type of assay: cell-based. Set-up: fuse HiBiT to the carboxy terminus of SMARCA2 (Promega CS302365) or SMARCA4 (Promega CS3023225); host or cells: HeLa (CRISPR/Cas9 HiBiT knock-in). The note with it: for DC50: read-out: SMARC A4 Hela HiBit DC50; for Dmax: read-out: SMARC A4 Hela HiBit Dmax(%). In a few lines:
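SMARCA4 degradation was measured in HeLa cells in which HiBiT had been knocked into the SMARCA4 carboxy terminus via CRISPR/Cas9 (Promega CS3023225). Cells were maintained in DMEM with FBS and penicillin-streptomycin. At the end of treatment, SMARCA4 levels were read by lytic HiBiT luminescence (Nano-Glo®, Promega N3050), and data were analyzed with GraphPad Prism.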

A further assay deals with SMARCA2 (Homo sapiens, UniProt P51531). In words: HiBiT assay for protein degradation, Hela SMARCA2-HiBiT cells (A series). Type of assay: cell-based. On the set-up: Hela cells were genetically modified via CRISPR/Cas9 to fuse HiBiT to the carboxy terminus of SMARCA2; host or cells: HeLa (CRISPR/Cas9 HiBiT knock-in). Put shortly:
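SMARCA2 degradation was measured in HeLa cells whose endogenous SMARCA2 carries a carboxy-terminal HiBiT tag introduced by CRISPR/Cas9 (Promega CS302365). Cells were maintained in DMEM with FBS and penicillin-streptomycin. SMARCA2 levels were read at the end of the experiment by Nano-Glo® HiBiT lytic luminescence (Promega N3050) and analyzed in GraphPad Prism.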

Where [1] appears, read: Hela SMARCA4-HiBiT cells, 24 hours treatment.
[2] abbreviates: Hela SMARCA2-HiBiT cells, 24 hours treatment.
The mark [3] stands for this setting: read-out: SMARC A2 Hela HiBit DC50.
Where [4] appears, read: Hela SMARCA2-HiBiT cells, 24 hours treatment; read-out: SMARC A2 Hela HiBit DC50.
Where [5] appears, read: HeLa, read-out: SMARC A2 Hela HiBit Dmax (%).
Where [6] appears, read: Hela SMARCA2-HiBiT cells, 24 hours treatment; read-out: SMARC A2 Hela HiBit Dmax (%).

SMARCA2, sequence (P51531 whole entry): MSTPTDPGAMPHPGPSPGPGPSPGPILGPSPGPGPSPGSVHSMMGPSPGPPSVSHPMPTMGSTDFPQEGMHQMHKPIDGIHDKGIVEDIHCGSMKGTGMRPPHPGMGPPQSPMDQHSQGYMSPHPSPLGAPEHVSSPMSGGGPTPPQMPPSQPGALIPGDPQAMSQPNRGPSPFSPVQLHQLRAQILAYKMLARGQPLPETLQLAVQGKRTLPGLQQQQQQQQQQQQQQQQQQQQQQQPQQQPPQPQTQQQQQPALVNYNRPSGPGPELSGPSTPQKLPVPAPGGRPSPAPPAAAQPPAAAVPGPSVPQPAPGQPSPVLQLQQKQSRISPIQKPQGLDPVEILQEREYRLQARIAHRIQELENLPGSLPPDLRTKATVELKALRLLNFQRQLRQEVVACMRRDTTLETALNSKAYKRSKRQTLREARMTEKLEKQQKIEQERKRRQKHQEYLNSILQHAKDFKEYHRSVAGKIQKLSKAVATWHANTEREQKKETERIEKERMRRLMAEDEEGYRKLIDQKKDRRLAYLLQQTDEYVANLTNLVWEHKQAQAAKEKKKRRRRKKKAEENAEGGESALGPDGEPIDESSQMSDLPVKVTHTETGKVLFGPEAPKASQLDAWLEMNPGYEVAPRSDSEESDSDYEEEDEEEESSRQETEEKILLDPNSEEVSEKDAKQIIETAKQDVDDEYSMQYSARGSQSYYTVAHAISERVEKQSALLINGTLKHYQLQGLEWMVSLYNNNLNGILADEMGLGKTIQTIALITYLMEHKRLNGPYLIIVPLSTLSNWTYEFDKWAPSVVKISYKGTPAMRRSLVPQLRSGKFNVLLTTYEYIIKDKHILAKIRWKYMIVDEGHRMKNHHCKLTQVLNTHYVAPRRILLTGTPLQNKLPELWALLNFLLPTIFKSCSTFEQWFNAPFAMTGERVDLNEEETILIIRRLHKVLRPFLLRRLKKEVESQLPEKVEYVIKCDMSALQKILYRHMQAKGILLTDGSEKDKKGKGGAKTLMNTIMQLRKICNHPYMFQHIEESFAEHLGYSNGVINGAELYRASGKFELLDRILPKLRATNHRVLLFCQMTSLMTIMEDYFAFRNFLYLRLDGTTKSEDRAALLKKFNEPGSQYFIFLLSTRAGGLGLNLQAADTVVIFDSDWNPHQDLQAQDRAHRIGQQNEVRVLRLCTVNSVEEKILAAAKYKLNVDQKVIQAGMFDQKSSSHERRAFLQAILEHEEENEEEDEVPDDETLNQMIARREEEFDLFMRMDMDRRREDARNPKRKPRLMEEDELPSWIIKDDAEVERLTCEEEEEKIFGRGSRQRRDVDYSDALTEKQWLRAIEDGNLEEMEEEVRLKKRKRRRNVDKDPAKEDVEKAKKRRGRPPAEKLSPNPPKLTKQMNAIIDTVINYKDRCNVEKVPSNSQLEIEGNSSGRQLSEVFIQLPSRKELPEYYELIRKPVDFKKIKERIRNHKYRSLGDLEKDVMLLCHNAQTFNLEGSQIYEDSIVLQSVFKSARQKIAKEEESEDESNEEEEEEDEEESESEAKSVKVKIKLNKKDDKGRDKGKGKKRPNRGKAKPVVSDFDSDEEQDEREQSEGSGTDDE
SMARCA4, sequence (P51532 whole entry): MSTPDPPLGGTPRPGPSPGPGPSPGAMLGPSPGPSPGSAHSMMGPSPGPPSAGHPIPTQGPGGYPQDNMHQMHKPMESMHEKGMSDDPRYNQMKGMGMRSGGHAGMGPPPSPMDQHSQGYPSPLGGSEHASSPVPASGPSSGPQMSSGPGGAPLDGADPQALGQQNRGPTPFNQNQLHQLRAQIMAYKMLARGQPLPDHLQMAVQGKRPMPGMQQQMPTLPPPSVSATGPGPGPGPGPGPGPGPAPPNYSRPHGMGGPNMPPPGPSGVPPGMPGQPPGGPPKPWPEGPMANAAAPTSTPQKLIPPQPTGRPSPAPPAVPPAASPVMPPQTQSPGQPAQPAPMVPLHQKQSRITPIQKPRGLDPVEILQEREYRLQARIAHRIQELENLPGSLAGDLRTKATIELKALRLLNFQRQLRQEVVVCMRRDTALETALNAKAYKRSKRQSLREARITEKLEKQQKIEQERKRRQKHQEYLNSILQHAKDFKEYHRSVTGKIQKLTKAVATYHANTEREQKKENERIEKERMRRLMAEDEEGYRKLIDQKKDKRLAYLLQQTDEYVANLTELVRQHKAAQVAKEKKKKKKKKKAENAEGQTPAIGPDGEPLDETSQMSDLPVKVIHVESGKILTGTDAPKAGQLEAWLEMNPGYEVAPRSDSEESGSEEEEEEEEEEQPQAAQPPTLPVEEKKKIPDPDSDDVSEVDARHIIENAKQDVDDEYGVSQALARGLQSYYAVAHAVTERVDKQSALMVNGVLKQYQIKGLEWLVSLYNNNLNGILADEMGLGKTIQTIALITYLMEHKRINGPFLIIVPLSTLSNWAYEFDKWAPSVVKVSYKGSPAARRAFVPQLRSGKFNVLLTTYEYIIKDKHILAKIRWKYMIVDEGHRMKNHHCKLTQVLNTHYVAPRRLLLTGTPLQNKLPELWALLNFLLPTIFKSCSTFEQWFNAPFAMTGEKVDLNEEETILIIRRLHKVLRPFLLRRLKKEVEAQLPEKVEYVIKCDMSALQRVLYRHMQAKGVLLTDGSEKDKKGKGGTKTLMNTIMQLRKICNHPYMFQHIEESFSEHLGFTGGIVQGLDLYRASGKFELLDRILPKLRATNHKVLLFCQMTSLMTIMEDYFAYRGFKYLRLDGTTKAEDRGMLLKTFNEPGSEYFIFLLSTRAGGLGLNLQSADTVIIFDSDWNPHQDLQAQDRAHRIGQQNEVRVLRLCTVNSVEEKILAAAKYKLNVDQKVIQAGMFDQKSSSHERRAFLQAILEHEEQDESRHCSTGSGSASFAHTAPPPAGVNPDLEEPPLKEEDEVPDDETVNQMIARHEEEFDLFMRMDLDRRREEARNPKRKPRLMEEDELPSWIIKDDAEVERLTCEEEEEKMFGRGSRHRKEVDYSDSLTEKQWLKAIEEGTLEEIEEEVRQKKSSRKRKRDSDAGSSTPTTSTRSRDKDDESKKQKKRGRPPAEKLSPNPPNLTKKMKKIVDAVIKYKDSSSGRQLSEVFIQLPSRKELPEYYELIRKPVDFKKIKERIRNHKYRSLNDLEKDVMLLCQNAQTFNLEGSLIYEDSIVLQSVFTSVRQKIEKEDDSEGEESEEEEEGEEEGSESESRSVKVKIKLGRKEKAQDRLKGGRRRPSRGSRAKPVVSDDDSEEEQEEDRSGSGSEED

For `Cc1ncsc1-c1ccc([C@H](C)NC(=O)[C@@H]2C[C@@H](O)CN2C(=O)[C@@H](n2cc(CCCCCN3CCC(c4ccc5c(c4)-n4c(nc(=O)c6c(Br)cccc64)C54CCCCC4)CC3)nn2)C(C)(C)C)cc1` [Compound A46, (2S,4R)-1-((S)-2-(4-(5-(4-(4′-bromo-5′-oxo-5′H-spiro[cyclohexane-1,7′-indolo[1,2-a]quinazolin]-10′-yl)piperidin-1-yl)pentyl)-1H-1,2,3-triazol-1-yl)-3,3-dimethylbutanoyl)-4-hydroxy-N—((S)-1-(4-(4-methylthiazol-5-yl)phenyl)ethyl)pyrrolidine-2-carboxamide], on SMARCA4 (setting [1]), the “SMARC A4 Hela HiBit Dmax(%)” value is “B (B (70-90% degradation))”. Also, the DC50 on SMARCA4 and at SMARCA2 (setting [3]) was below 0.1 µM each time. Moreover, on SMARCA2 (setting [2]), the “SMARC A2 Hela HiBit Dmax (%)” value is reported as “A (A (>90% degradation))”.

Regarding `Cc1ncsc1-c1ccc([C@H](C)NC(=O)[C@@H]2C[C@@H](O)CN2C(=O)[C@@H](n2cc(CCCCCCN3CCC(c4ccc5c(c4)-n4c(nc(=O)c6c(Br)cccc64)C54CCCCC4)CC3)nn2)C(C)(C)C)cc1` [Compound A47, (2S,4R)-1-((S)-2-(4-(6-(4-(4′-bromo-5′-oxo-5′H-spiro[cyclohexane-1,7′-indolo[1,2-a]quinazolin]-10′-yl)piperidin-1-yl)hexyl)-1H-1,2,3-triazol-1-yl)-3,3-dimethylbutanoyl)-4-hydroxy-N—((S)-1-(4-(4-methylthiazol-5-yl)phenyl)ethyl)pyrrolidine-2-carboxamide], the “SMARC A4 Hela HiBit Dmax(%)” value at SMARCA4 (setting [1]) is on record as “A (A (>90% degradation))”. Further, the DC50 at SMARCA4 and on SMARCA2 (setting [3]) was below 0.1 µM throughout. In addition, the “SMARC A2 Hela HiBit Dmax (%)” value at SMARCA2 (setting [2]) is listed as “A (A (>90% degradation))”.

Turning to `Cc1ncsc1-c1ccc([C@H](C)NC(=O)[C@@H]2C[C@@H](O)CN2C(=O)[C@@H](n2cc(CCN3CCC(c4ccc5c(c4)-n4c(nc(=O)c6c(Br)cccc64)C54CCCCC4)CC3)nn2)C(C)(C)C)cc1` [Compound A48, (2S,4R)-1-((S)-2-(4-(2-(4-(4′-bromo-5′-oxo-5′H-spiro[cyclohexane-1,7′-indolo[1,2-a]quinazolin]-10′-yl)piperidin-1-yl)ethyl)-1H-1,2,3-triazol-1-yl)-3,3-dimethylbutanoyl)-4-hydroxy-N—((S)-1-(4-(4-methylthiazol-5-yl)phenyl)ethyl)pyrrolidine-2-carboxamide], the “SMARC A4 Hela HiBit Dmax(%)” value at SMARCA4 (setting [1]) is “C (C (50-69% degradation))”. The DC50 on SMARCA4 is 0.1 to 0.5 µM; on SMARCA2 (setting [3]), below 0.1 µM. In addition, the “SMARC A2 Hela HiBit Dmax (%)” value on SMARCA2 (setting [2]) is “A (A (>90% degradation))”.

As for `Cc1ncsc1-c1ccc([C@H](C)NC(=O)[C@@H]2C[C@@H](O)CN2C(=O)[C@@H](n2cc([C@H]3CC[C@H](CN4CCC(c5ccc6c(c5)-n5c(nc(=O)c7c(Br)cccc75)C65CCCCC5)CC4)CC3)nn2)C(C)(C)C)cc1` [Compound A49, (2S,4R)-1-((S)-2-(4-((1r,4S)-4-((4-(4′-bromo-5′-oxo-5′H-spiro[cyclohexane-1,7′-indolo[1,2-a]quinazolin]-10′-yl)piperidin-1-yl)methyl)cyclohexyl)-1H-1,2,3-triazol-1-yl)-3,3-dimethylbutanoyl)-4-hydroxy-N—((S)-1-(4-(4-methylthiazol-5-yl)phenyl)ethyl)pyrrolidine-2-carboxamide], at SMARCA4 (setting [1]), the “SMARC A4 Hela HiBit Dmax(%)” value is recorded as “B (B (70-90% degradation))” and the DC50 was 0.1 to 0.5 µM. Moreover, on SMARCA2 (setting [2]), the “SMARC A2 Hela HiBit Dmax (%)” value is listed as “A (A (>90% degradation))”. For the same molecule, the half-maximal degradation concentration (DC50) at SMARCA2 (setting [4]) is below 0.1 µM.

On to `Cc1ncsc1-c1ccc([C@H](C)NC(=O)[C@@H]2C[C@@H](O)CN2C(=O)[C@@H](n2cc([C@H]3CC[C@H](CN4CCC(c5ccc6c(n5)-n5c(nc(=O)c7c(Br)cccc75)C65CCCCC5)CC4)CC3)nn2)C(C)(C)C)cc1` [Compound A50, (2S,4R)-1-((S)-2-(4-((1r,4S)-4-((4-(4′-bromo-5′-oxo-5′H-spiro[cyclohexane-1,7′-pyrido[3′,2′: 4,5]pyrrolo[1,2-a]quinazolin]-10′-yl)piperidin-1-yl)methyl)cyclohexyl)-1H-1,2,3-triazol-1-yl)-3,3-dimethylbutanoyl)-4-hydroxy-N—((S)-1-(4-(4-methylthiazol-5-yl)phenyl)ethyl)pyrrolidine-2-carboxamide], for which, at SMARCA4 (setting [1]), the “SMARC A4 Hela HiBit DC50(nM)” value was “No Fit”. Besides, at SMARCA2 (setting [5]), the Dmax is above 90%. In addition, on SMARCA2 (setting [4]), the DC50 was below 0.1 µM.

As for `Cc1ncsc1-c1ccc([C@H](C)NC(=O)[C@@H]2C[C@@H](O)CN2C(=O)[C@@H](NC(=O)[C@H]2CC[C@H](CN3CCC(c4ccc5c(n4)-n4c(nc(=O)c6c(Br)cccc64)C54CCCCC4)CC3)CC2)C(C)(C)C)cc1` [Compound A51, (2S,4R)-1-((S)-2-((1r,4S)-4-((4-(4′-bromo-5′-oxo-5′H-spiro[cyclohexane-1,7′-pyrido[3′,2′: 4,5]pyrrolo[1,2-a]quinazolin]-10′-yl)piperidin-1-yl)methyl)cyclohexane-1-carboxamido)-3,3-dimethylbutanoyl)-4-hydroxy-N—((S)-1-(4-(4-methylthiazol-5-yl)phenyl)ethyl)pyrrolidine-2-carboxamide], the greatest degradation seen (Dmax) is below 50% at SMARCA4 (HeLa) and 50 to 69% at SMARCA2 (setting [5]). In addition, the “SMARC A4 Hela HiBit DC50(nM)” value at SMARCA4 (setting [1]) is reported as “No Fit”. On SMARCA2 (read-out: SMARC A2 Hela HiBit DC50; Hela SMARCA2-HiBiT cells, 24 hours treatment), the DC50 lay within 0.501 to 1 µM.

For `Cc1ncsc1-c1ccc([C@H](C)NC(=O)[C@@H]2C[C@@H](O)CN2C(=O)[C@@H](n2cc(CN3CCC(c4ccc5c(c4)C4(CCCCC4)c4nc(=O)c6c(Br)cccc6n4-5)CC3)nn2)C(C)(C)C)cc1` [Compound A53, (2S,4R)-1-((S)-2-(4-((4-(4′-bromo-5′-oxo-5′H-spiro[cyclohexane-1,7′-indolo[1,2-a]quinazolin]-9′-yl)piperidin-1-yl)methyl)-1H-1,2,3-triazol-1-yl)-3,3-dimethylbutanoyl)-4-hydroxy-N—((S)-1-(4-(4-methylthiazol-5-yl)phenyl)ethyl)pyrrolidine-2-carboxamide], the half-maximal degradation concentration (DC50) at SMARCA4 (setting [1]) and on SMARCA2 (setting [4]) was below 0.1 µM each time. The Dmax at SMARCA4 (setting [1]) and at SMARCA2 (setting [6]) was above 90% in each case.

`Cc1ncsc1-c1ccc([C@H](C)NC(=O)[C@@H]2C[C@@H](O)CN2C(=O)[C@@H](n2cc(CCN3CCC(c4ccc5c(c4)C4(CCCCC4)c4nc(=O)c6c(Br)cccc6n4-5)CC3)nn2)C(C)(C)C)cc1` [Compound A54, (2S,4R)-1-((S)-2-(4-(2-(4-(4′-bromo-5′-oxo-5′H-spiro[cyclohexane-1,7′-indolo[1,2-a]quinazolin]-9′-yl)piperidin-1-yl)ethyl)-1H-1,2,3-triazol-1-yl)-3,3-dimethylbutanoyl)-4-hydroxy-N—((S)-1-(4-(4-methylthiazol-5-yl)phenyl)ethyl)pyrrolidine-2-carboxamide]: the DC50 at SMARCA4 (setting [1]) and on SMARCA2 (setting [4]) was below 0.1 µM throughout. The Dmax at SMARCA4 (setting [1]) and on SMARCA2 (setting [6]) was above 90% throughout.

On to `Cc1ncsc1-c1ccc([C@H](C)NC(=O)[C@@H]2C[C@@H](O)CN2C(=O)[C@@H](n2cc(CCCN3CCC(c4ccc5c(c4)C4(CCCCC4)c4nc(=O)c6c(Br)cccc6n4-5)CC3)nn2)C(C)(C)C)cc1` [Compound A55, (2S,4R)-1-((S)-2-(4-(3-(4-(4′-bromo-5′-oxo-5′H-spiro[cyclohexane-1,7′-indolo[1,2-a]quinazolin]-9′-yl)piperidin-1-yl)propyl)-1H-1,2,3-triazol-1-yl)-3,3-dimethylbutanoyl)-4-hydroxy-N—((S)-1-(4-(4-methylthiazol-5-yl)phenyl)ethyl)pyrrolidine-2-carboxamide], for which the DC50 on SMARCA4 (setting [1]) and on SMARCA2 (setting [4]) was below 0.1 µM each time. Moreover, the Dmax at SMARCA4 (setting [1]) and at SMARCA2 (setting [6]) was above 90% throughout.

For `Cc1ncsc1-c1ccc([C@H](C)NC(=O)[C@@H]2C[C@@H](O)CN2C(=O)[C@@H](n2cc(CCCCN3CCC(c4ccc5c(c4)C4(CCCCC4)c4nc(=O)c6c(Br)cccc6n4-5)CC3)nn2)C(C)(C)C)cc1` [Compound A56, (2S,4R)-1-((S)-2-(4-(4-(4-(4′-bromo-5′-oxo-5′H-spiro[cyclohexane-1,7′-indolo[1,2-a]quinazolin]-9′-yl)piperidin-1-yl)butyl)-1H-1,2,3-triazol-1-yl)-3,3-dimethylbutanoyl)-4-hydroxy-N—((S)-1-(4-(4-methylthiazol-5-yl)phenyl)ethyl)pyrrolidine-2-carboxamide], the 50% degradation concentration (DC50) at SMARCA4 (setting [1]) and at SMARCA2 (setting [4]) was below 0.1 µM throughout. Besides, the maximal degradation (Dmax) on SMARCA4 (setting [1]) and at SMARCA2 (setting [6]) was above 90% each time.
